According to PubChem BioAssay (NCI):
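Values below derive from 48-hour exposures of cells grown in 96-well plates, with endpoints linearly interpolated between the two concentrations bracketing the appropriate inhibition level. At the GI50, growth is halved. At the TGI there is no net growth.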

What was measured:
Assay in all cases: NCI tumour cell line growth inhibition, 48 h
OVCAR-5 ovarian = system: OVCAR-5 ovarian
SK-OV-3 ovarian = system: SK-OV-3 ovarian
TK-10 renal = system: TK-10 renal
HL-60(TB) leukemia = system: HL-60(TB) leukemia
HOP-92 NSCLC = system: HOP-92 NSCLC
NCI/ADR-RES ovarian = system: NCI/ADR-RES ovarian
KM12 colon = system: KM12 colon
PC-3 prostate = system: PC-3 prostate
U251 CNS = system: U251 CNS
HCT-116 colon = system: HCT-116 colon

Row | SMILES | GI50 (OVCAR-5 ovarian) | TGI (OVCAR-5 ovarian) | GI50 (SK-OV-3 ovarian) | TGI (SK-OV-3 ovarian) | GI50 (TK-10 renal) | TGI (TK-10 renal) | GI50 (HL-60(TB) leukemia) | TGI (HL-60(TB) leukemia) | GI50 (HOP-92 NSCLC) | TGI (HOP-92 NSCLC) | GI50 (NCI/ADR-RES ovarian) | TGI (NCI/ADR-RES ovarian) | GI50 (KM12 colon) | TGI (KM12 colon) | GI50 (PC-3 prostate) | TGI (PC-3 prostate) | GI50 (U251 CNS) | TGI (U251 CNS) | GI50 (HCT-116 colon) | TGI (HCT-116 colon)
1 | C#Cc1cccc(Nc2nc(C)nc3cc(NC(=O)CCl)ccc23)c1 | 0.953 µM | 5.38 µM | 3.81 µM | 7.31 µM | 3.52 µM | 6.77 µM | 2.63 µM | 7.67 µM | 0.67 µM | 1.89 µM | 3.42 µM | 12.5 µM | 4.13 µM | 8.15 µM | 2.53 µM | 6.16 µM | 0.641 µM | 1.7 µM | 0.654 µM | 2.66 µM
2 | Oc1cccc2ccc(SSc3ccc4cccc(O)c4n3)nc12 |  | 41.4 µM |  | 31.7 µM |  | 41.3 µM |  | 56.7 µM |  | 55.9 µM |  | 65.6 µM |  | 29.5 µM |  | 29.9 µM |  | 30 µM |  | 41.1 µM
3 | COc1nc2c(c(=O)n1C)CN(c1ccccc1)C(=O)CN2C | > 100 µM | > 100 µM | > 100 µM | > 100 µM | 51.1 µM | > 100 µM | 49.8 µM | > 100 µM | 0.852 µM | 55.1 µM | 72.2 µM | > 100 µM | 27.3 µM | > 100 µM | 20 µM | > 100 µM | 78.9 µM | > 100 µM | 60.5 µM | > 100 µM
4 | COc1ccc(-c2oc3ncnc(N)c3c2-c2ccc(NC(=O)Nc3cc(C(F)(F)F)ccc3F)cc2)cc1 | 3.15 µM | 8.82 µM | 0.894 µM | 5.09 µM | 0.67 µM | 3.37 µM | 2.58 µM | 9.31 µM | 0.808 µM | 5.4 µM | 1.17 µM | 6.24 µM | 0.00588 µM | 1.51 µM | 1.94 µM | 11.4 µM | 0.997 µM | 3.83 µM | 0.883 µM | 2.84 µM
5 | COC(=O)[C@@H](C)C[C@H](Cc1ccc(F)cc1)NC(=O)c1csc([C@@H](C[C@H](C(C)C)N(C)C(=O)[C@@H](NC(=O)[C@H]2CCCCN2C)C2CC2)OC(C)=O)n1 | 1.07 µM | > 25 µM | 5.39 µM | > 25 µM | > 13.8 µM | > 25 µM | 0.054 µM |  | 0.917 µM | > 12.8 µM | 6.88 µM | > 25 µM | 0.28 µM | > 25 µM | 0.415 µM | > 25 µM | 0.293 µM | > 25 µM | 0.116 µM | > 9.49 µM
6 | Cc1ccc(NC(=O)CCc2nnc3s/c(=C\C=C\c4ccccc4)c(=O)n23)cc1 |  | > 100 µM |  | > 100 µM |  | > 100 µM |  | > 79.7 µM |  | > 100 µM |  | > 78.6 µM |  | > 100 µM |  | > 100 µM |  | > 100 µM |  | > 100 µM
7 | COc1ccc2c(c1)C(=O)/C(=C/c1ccc(O)cc1)O2 | 19.2 µM | 38.5 µM | 52.7 µM | > 100 µM | 15 µM | 31 µM | 1.35 µM | 2.95 µM | 3.37 µM | 9.65 µM | 26.1 µM | > 83.6 µM | 8.78 µM | 22.8 µM | 9.48 µM | 24.7 µM | 14.1 µM | 27.2 µM | 4.42 µM | 18.2 µM
8 | COc1cc(OCCCN2CCCC2)ccc1Nc1ncc(Cl)c(Nc2ccccc2P(C)(C)=O)n1 | 1.07 µM | 22.5 µM | 2.3 µM | 6.41 µM | 0.983 µM | 4.91 µM | 1.36 µM | 6.19 µM | 0.163 µM | 1.25 µM | 12.6 µM | > 77.4 µM | 2.63 µM | 11 µM | 4.11 µM | 49.6 µM | 5.43 µM | 19.8 µM | 1.74 µM | 7.24 µM
9 | COc1ccc(-c2c(NC(=O)Nc3ccc(Cl)c(C(F)(F)F)c3)cnn2-c2ccc(S(N)(=O)=O)cc2)cc1 | 3.54 µM | 14.4 µM | 3.69 µM | 14 µM | 3.85 µM | 15.3 µM | 2.27 µM | 5.67 µM | 2.02 µM | 7.32 µM | 24.7 µM | > 100 µM | 3.04 µM | 11.6 µM | 2.87 µM | 11.4 µM | 3.3 µM | 12.3 µM | 2.04 µM | 4.22 µM
10 | C=C[C@@H]1CCC/C=C/[C@@H]2C[C@H](O)C[C@H]2[C@H](O)/C=C/C(=O)O1 | 0.664 µM | > 100 µM | 0.709 µM | > 100 µM | 0.554 µM | 19.8 µM | 2.23 µM | > 25.2 µM | 0.702 µM | 5.95 µM | 0.365 µM | 11.6 µM | 0.35 µM | 1.35 µM | 0.785 µM | > 100 µM | 0.941 µM | > 100 µM | 0.866 µM | 2.49 µM
11 | COc1cc(/C=C/C(=O)c2ccccc2O)ccc1OCCCOc1cc2c(cc1OC)C(=O)N1CCC[C@H]1C=N2 | 0.0354 µM | 1.16 µM | 0.316 µM | 3.82 µM | 0.0794 µM | 1.62 µM | 0.0515 µM | 0.161 µM | 0.0499 µM | 0.99 µM | 0.345 µM | 16.8 µM | 0.0369 µM | 0.263 µM | 0.0541 µM | 7.51 µM | 0.0226 µM | 0.0511 µM | 0.0332 µM | 1.57 µM
12 | FC(F)(F)c1cccc(Oc2ccc(Nc3ncnc4ccc(OCCCN5CCOCC5)cc34)cc2Cl)c1 | 2.45 µM | 7.76 µM | 1.38 µM | 15.5 µM | 2.02 µM | 9.74 µM | 2.03 µM | 4.88 µM | 1.76 µM | 7.82 µM | 2.82 µM | 13.8 µM | 2.29 µM | 5.59 µM | 2.4 µM | 8.58 µM | 1.9 µM | 4.19 µM | 1.62 µM | 3.08 µM
13 | CCOc1ccc(Nc2ccnc3cc(Cl)ccc23)cc1 | 8.02 µM | > 100 µM | > 100 µM | > 100 µM | > 100 µM | > 100 µM | > 100 µM | > 100 µM | 16.1 µM | > 100 µM | > 100 µM | > 100 µM | 84.1 µM | > 100 µM | > 100 µM | > 100 µM | > 100 µM | > 100 µM | 35 µM | > 100 µM
14 | COc1ccc2c(c1)c1ccc3c(c1n2C)C(=O)C=CC3=O |  | 35 µM |  | 41.3 µM |  | 17.4 µM |  | 4.94 µM |  | 14.5 µM |  | 42.7 µM |  | 35.8 µM |  | 26.2 µM |  | 36 µM |  | 14 µM
15 | C[C@]12CC[C@@H]3c4ccc(O)cc4CC[C@H]3[C@@H]1CC(Cc1ccccc1)(Cc1ccccc1)C2=O | 17.2 µM | 31.5 µM | 21.2 µM | 37.4 µM | 19.9 µM | 43 µM | 4.75 µM | 20.9 µM | 2.16 µM | 9.77 µM | 16.5 µM | 30.7 µM | 11.5 µM | 38 µM | 4.11 µM | 15.5 µM | 16 µM | 31.8 µM | 8.59 µM | 20.7 µM
16 | CC(C)(C)c1cc[n+](C[n+]2ccc(C(C)(C)C)cc2)cc1 |  | > 100 µM |  | > 100 µM |  | > 100 µM |  | > 100 µM |  | > 100 µM |  | > 100 µM |  | > 100 µM |  | > 100 µM |  | > 100 µM |  | > 100 µM
17 | NC(=O)c1ccc(I)c([N+](=O)[O-])c1 | 25.5 µM | > 68.1 µM | > 100 µM | > 100 µM | > 100 µM | > 100 µM | 29.9 µM | > 95.7 µM | > 70.6 µM | > 100 µM | > 100 µM | > 100 µM | > 100 µM | > 100 µM | > 100 µM | > 100 µM | 45.3 µM | > 100 µM | > 100 µM | > 100 µM
18 | O=c1oc2ccc(F)cc2c(=O)n1-c1ccc(I)cc1F | 3.4 µM | > 54.5 µM | 0.522 µM | 10.5 µM | 1.06 µM | 17.5 µM | 0.366 µM | 1.83 µM | 0.206 µM | 0.577 µM | 0.522 µM | 5.89 µM | 1.92 µM | 5.38 µM | 1.48 µM | 6.58 µM | 0.469 µM | > 100 µM | 0.387 µM | 2.03 µM
